These results are taken from patent US7351728B2, “Oxazolyl-aryloxyacetic acid derivatives and their use as PPAR agonists” (Eli Lilly and Company, priority 2003, dated 2008).

For orientation: IC50 means the point on the concentration scale where inhibition reaches its midpoint. Read a low IC50 as greater potency. The term melting point denotes the temperature of the solid-liquid transition.

The target of data set [1] is T1, huPPARγ (Homo sapiens, UniProt P37231).
T1 sequence (P37231 1-505): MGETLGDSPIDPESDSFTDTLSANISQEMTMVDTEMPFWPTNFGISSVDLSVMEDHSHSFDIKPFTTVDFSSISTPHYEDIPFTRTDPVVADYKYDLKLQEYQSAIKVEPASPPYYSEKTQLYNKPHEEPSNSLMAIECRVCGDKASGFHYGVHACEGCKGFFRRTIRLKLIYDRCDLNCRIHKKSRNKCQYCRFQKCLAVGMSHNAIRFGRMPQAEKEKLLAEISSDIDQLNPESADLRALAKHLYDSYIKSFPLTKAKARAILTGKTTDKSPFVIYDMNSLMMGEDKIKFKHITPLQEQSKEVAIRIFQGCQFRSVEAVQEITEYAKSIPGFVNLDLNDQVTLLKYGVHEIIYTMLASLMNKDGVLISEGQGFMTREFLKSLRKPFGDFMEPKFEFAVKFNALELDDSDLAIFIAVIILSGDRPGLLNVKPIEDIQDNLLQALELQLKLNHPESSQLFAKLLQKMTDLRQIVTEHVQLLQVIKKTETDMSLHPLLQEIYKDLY
T1 sequence (P19793 1-462 partner): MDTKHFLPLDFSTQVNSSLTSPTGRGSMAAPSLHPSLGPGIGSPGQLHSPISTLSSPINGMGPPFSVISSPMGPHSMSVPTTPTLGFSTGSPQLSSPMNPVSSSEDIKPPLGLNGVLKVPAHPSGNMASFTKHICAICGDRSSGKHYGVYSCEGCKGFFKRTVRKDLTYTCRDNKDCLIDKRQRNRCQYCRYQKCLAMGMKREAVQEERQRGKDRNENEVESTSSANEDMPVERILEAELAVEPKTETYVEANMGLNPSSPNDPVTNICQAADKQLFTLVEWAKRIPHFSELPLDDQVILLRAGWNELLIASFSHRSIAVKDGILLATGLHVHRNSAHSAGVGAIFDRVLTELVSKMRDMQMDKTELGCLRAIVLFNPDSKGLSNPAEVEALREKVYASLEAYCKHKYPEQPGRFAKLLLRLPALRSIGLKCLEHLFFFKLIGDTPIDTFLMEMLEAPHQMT
The experiment in a line: Cotransfection assay in CV-1 cells, AOX PPRE luciferase reporter. More on the design: expressed in transfected cells; host or cells: CV-1 cells. Type of data set: cell-based. The following applies: cotransfection efficacy relative to PPARγ agonist reference molecule, read-out: huPPARγ CTF Eff. (%). How it is done:
(§1) DNA-dependent binding (ABCD binding) was carried out using SPA technology with PPAR receptors. Tritium-labeled PPARα and PPARγ agonists were used as radioligands for generating displacement curves and IC50 values with compounds of the invention. Cotransfection assays were carried out in CV-1 cells. The reporter plasmid contained an acylCoA oxidase (AOX) PPRE and TK promoter upstream of the luciferase reporter cDNA. Appropriate PPARs and RXRα were constitutively expressed using plasmids containing the CMV promoter. […] In order to eliminate such interference, a GAL4 chimeric system was used in which the DNA binding domain of the transfected PPAR was replaced by that of GAL4, and the GAL4 response element was utilized in place of the AOX PPRE. Cotransfection efficacy was determined relative to PPARα agonist and PPARγ agonist reference molecules. Efficacies were determined by computer fit to a concentration-response curve, or in some cases at a single high concentration of agonist (10 μM). For binding or cotransfection studies with receptors other than PPARs, similar assays were carried out using appropriate ligands, receptors, reporter constructs, etc., for that particular receptor.
(§2) These studies were carried out to evaluate the ability of compounds of the invention to bind to and/or activate various nuclear transcription factors, particularly huPPARα (“hu” indicates “human”) and huPPARγ. These studies provide in vitro data concerning efficacy and selectivity of compounds of the invention. Furthermore, binding and cotransfection data for compounds of the invention were compared with corresponding data for marketed compounds that act on either huPPARα or huPPARγ.
(§3) Binding and cotransfection data for representative compounds of the invention are compared with corresponding data for reference compounds in Table II.
Background: In a reporter assay the amount or activity of a reporter protein is the signal.

The next data set relates to huPPARα. The experiment in a line: Cotransfection assay in CV-1 cells, luciferase reporter (GAL4 chimeric system). Type of data set: cell-based, human. To be noted: cotransfection efficacy relative to PPARα agonist reference molecule. How it is done:
as §1, §2, §3

For data set [2], the target named is T1, huPPARγ. The experiment in a line: DNA-dependent binding (ABCD binding), SPA, tritium-labeled PPARγ agonist radioligand. To be noted: displacement of tritium-labeled PPARγ agonist. How it is done: as §1, §2, §3

For `Cc1oc(-c2ccccc2)nc1CCOc1ccc(OC(C)(C)C(=O)O)c(CCc2ccccc2)c1` [Example 30J, 2-Methyl-2-{4-[2-(5-methyl-2-phenyloxazol-4-yl)ethoxy]-2-phenethylphenoxy}propionic acid], the Emax at huPPARγ [1] turned out to be 50%. In the data set on huPPARα, the “huPPARα CTF Eff. (%)” value is listed as 90%. This molecule returned an IC50 on huPPARγ [2] of 83 nM.

The molecule `Cc1cc(OCCc2nc(-c3ccccc3)oc2C)ccc1OC(C)(C)C(=O)O` [Example 24, 2-Methyl-2-{2-methyl-4-[2-(5-methyl-2-phenyloxazol-4-yl)ethoxy]phenoxy}propionic acid] had a melting point of 117 °C. Moreover, at huPPARγ [1], the Emax was 94%. Further, the “huPPARα CTF Eff. (%)” value in the data set with huPPARα was 73%. The IC50 on huPPARγ [2] was 239 nM.

As to `Cc1oc(-c2ccccc2)nc1CCOc1ccc(OC(C)(C)C(=O)O)c2ccccc12` [Example 37, 2-Methyl-2-{4-[2-(5-methyl-2-phenyl-oxazol-4-yl)-ethoxy]-naphthalen-1-yloxy}-propionic acid], at huPPARγ [1], the Emax came out at 60%. Also, the “huPPARα CTF Eff. (%)” value in the data set with huPPARα is on record as 91%. On huPPARγ [2], this molecule displayed an IC50 of 172 nM.

For `CCCc1cc(OCCc2nc(-c3ccccc3)oc2C)ccc1OC(C)(C)C(=O)O` [Example 26A, 2-Methyl-2-{4-[2-(5-methyl-2-phenyloxazol-4-yl)ethoxy]-2-propylphenoxy}propionic acid], the Emax at huPPARγ [1] worked out at 74%. In addition, in the data set on huPPARα, the “huPPARα CTF Eff. (%)” value is listed as 75%. Further, the IC50 on huPPARγ [2] worked out at 102 nM.

For `Cc1oc(-c2ccccc2)nc1CCOc1ccc(OC(C)(C)C(=O)O)c(CC(C)C)c1` [Example 30C, 2-{2-Isobutyl-4-[2-(5-methyl-2-phenyloxazol-4-yl)ethoxy]phenoxy}-2-methylpropionic acid], the Emax at huPPARγ [1] was 63%. Further, in the data set on huPPARα, the “huPPARα CTF Eff. (%)” value is 67%. The same molecule displayed an IC50 at huPPARγ [2] of 148 nM.

`CCCCc1cc(OC(C)(C)C(=O)O)ccc1OCCc1nc(-c2ccccc2)oc1C` [Example 31F, 2-{3-Butyl-4-[2-(5-methyl-2-phenyloxazol-4-yl)ethoxy]phenoxy}-2-methylpropionic acid]: the Emax on huPPARγ [1] is 51%. Also, the “huPPARα CTF Eff. (%)” value in the data set on huPPARα is listed as 70%. Further, at huPPARγ [2], the IC50 amounted to 10 nM.

Turning to `CCCc1cc(OCCc2nc(-c3ccccc3)oc2C)ccc1OCC(=O)O` [Example 26, {4-[2-(5-methyl-2-phenyl-oxazol-4-yl)ethoxy]-2-propylphenoxy}acetic acid], the Emax at huPPARγ [1] turned out to be 52%. Further, the “huPPARα CTF Eff. (%)” value in the data set on huPPARα was found to be 35%. This molecule also displayed an IC50 on huPPARγ [2] of 1150 nM.

Turning to `Cc1oc(-c2ccccc2)nc1CCOc1ccc(OC(C)(C)C(=O)O)cc1` [Example 1, 2-Methyl-2-{4-[2-(5-methyl-2-phenyloxazol-4-yl)ethoxy]phenoxy}propionic acid], on huPPARγ [1], the Emax turned out to be 69%. Besides, the “huPPARα CTF Eff. (%)” value in the data set with huPPARα was 72%. The IC50 on huPPARγ [2] was found to be 2130 nM.

As to `Cc1oc(-c2ccccc2)nc1CCOc1ccc(OC(C)(C)C(=O)O)c2c1CCCC2` [Example 38, 2-Methyl-2-{4-[2-(5-methyl-2-phenyl-oxazol-4-yl)-ethoxy]-5,6,7,8-tetrahydro-naphthalen-1-yloxy}-propionic acid], the Emax at huPPARγ [1] was 65%. In addition, the “huPPARα CTF Eff. (%)” value with huPPARα was 80%. This molecule gave an IC50 on huPPARγ [2] of 81 nM.

For `CCc1cc(OCCc2nc(-c3ccccc3)oc2C)ccc1OC(C)(C)C(=O)O` [Example 30A, 2-{2-Ethyl-4-[2-(5-methyl-2-phenyloxazol-4-yl)ethoxy]phenoxy}2-methylpropionic acid], on huPPARγ [1], the Emax came out at 92%. Also, in the data set with huPPARα, the “huPPARα CTF Eff. (%)” value stood at 80%. Besides, the IC50 at huPPARγ [2] worked out at 78 nM.

`CCc1cccc(-c2nc(CCOc3ccc(OC(C)(C)C(=O)O)cc3)c(C)o2)c1` [Example 12, 2-(4-{2-[2-(3-Ethylphenyl)-5-methyloxazol-4-yl]ethoxy}phenoxy)-2-methylpropionic acid] had a melting point of 134 to 135 °C. Also, the Emax on huPPARγ [1] was found to be 66%. Moreover, the “huPPARα CTF Eff. (%)” value in the data set on huPPARα stood at 68%. At huPPARγ [2], this molecule displayed an IC50 of 219 nM.

Take `CCc1ccc(-c2nc(CCOc3ccc(OC(C)(C)C(=O)O)cc3)c(C)o2)cc1` [Example 13, 2-(4-{2-[2-(4-Ethylphenyl)-5-methyloxazol-4-yl]ethoxy}phenoxy)-2-methylpropionic acid]: at huPPARγ [1], the Emax came out at 109%. Also, the “huPPARα CTF Eff. (%)” value with huPPARα is 73%. On huPPARγ [2], this molecule returned an IC50 of 420 nM.

In turn, `Cc1oc(-c2cccc(Br)c2)nc1CCOc1ccc(OC(C)(C)C(=O)O)cc1` [Example 9A, 2-(4-{2-[2-(3-Bromophenyl)-5-methyloxazol-4-yl]ethoxy}phenoxy)-2-methylpropionic acid] gave a melting point of 158 to 159 °C. The Emax on huPPARγ [1] worked out at 60%. In addition, the “huPPARα CTF Eff. (%)” value in the data set with huPPARα is reported as 82%. The same molecule returned an IC50 on huPPARγ [2] of 180 nM.

For the molecule `Cc1oc(-c2ccc(OC3CCCCC3)cc2)nc1CCOc1ccc(OC(C)(C)C(=O)O)cc1` [Example 21, 2-(4-{2-[2-(4-Cyclohexyloxy-phenyl)-5-methyl-oxazol-4-yl]-ethoxy}-phenoxy)-2-methyl-propionic acid], the Emax at huPPARγ [1] was determined as 85%. Moreover, the “huPPARα CTF Eff. (%)” value in the data set with huPPARα is reported as 78%. For the same molecule, the IC50 at huPPARγ [2] is 627 nM.

Take `CCCc1cc(OC(C)(C)C(=O)O)ccc1OCCc1nc(-c2ccccc2)oc1C` [Example 27A, 2-Methyl-2-{4-[2-(5-methyl-2-phenyloxazol-4-yl)ethoxy]-3-propylphenoxy}propionic acid]: the Emax on huPPARγ [1] came out at 63%. Moreover, in the data set on huPPARα, the “huPPARα CTF Eff. (%)” value worked out at 95%. Besides, the IC50 at huPPARγ [2] came to 49 nM.

On to `Cc1oc(-c2cccc(CCc3ccccc3)c2)nc1CCOc1ccc(OC(C)(C)C(=O)O)cc1` [Example 12A, 2-Methyl-2-(4-{2-[5-methyl-2-(3-phenethylphenyl)oxazol-4-yl]ethoxy}phenoxy)-propionic acid], for which the melting point is 124 to 125 °C. Also, the Emax at huPPARγ [1] came to 170%. Moreover, the “huPPARα CTF Eff. (%)” value in the data set on huPPARα is recorded as 74%. This molecule registered an IC50 on huPPARγ [2] of 102 nM.

With `Cc1oc(-c2ccccc2)nc1CCOc1ccc(OC(C)(C)C(=O)O)c(Cc2ccccc2)c1` [Example 32, 2-{2-Benzyl-4-[2-(5-methyl-2-phenyloxazol-4-yl)ethoxy]phenoxy}-2-methylpropionic acid], at huPPARγ [1], the Emax worked out at 80%. In addition, the “huPPARα CTF Eff. (%)” value in the data set with huPPARα was found to be 82%. In addition, at huPPARγ [2], the IC50 stood at 42 nM.
